Assay results published in patent US20240158446A1, “CYCLIC COMPOUND HAVING SELECTIVE INHIBITORY ACTION ON KRAS OVER HRAS AND NRAS” (CHUGAI SEIYAKU KABUSHIKI KAISHA, priority 2021, published 2024).
pIC50, pKd: −log10 of the molar value. Where two headings read alike, the source gives them in different places. *1 amine or outer side, *2 acyl side, *3 side chain or, on linkers, in order; H or OH if unused. Where a SMILES comes first, the peptide text is derived from it. Bridges are numbered along the chain shown (N, C = ends). [ ]: non-standard residue; d: D form. The star is where a group is joined. hPhe(3-Cl-4-CF3) = N[C@@H](CCc1ccc(C(F)(F)F)c(Cl)c1)C(=O)O; NEtPhe(4-Me) = CCN[C@@H](Cc1ccc(C)cc1)C(=O)O; X3 = CCCN([C@H](C(=O)[*:2])C1CCCC1)[*:1]; NMeGly(cPent) = CN[C@H](C(=O)O)C1CCCC1; Hyp = O=C(O)[C@@H]1C[C@@H](O)CN1; NMeD = CN[C@@H](CC(=O)O)C(=O)O; NMeL = CN[C@@H](CC(C)C)C(=O)O; Morpholide = C1CN(*)CCO1; NMeA = CN[C@@H](C)C(=O)O; Ac5c = NC1(C(=O)O)CCCC1; Aze = O=C(O)[C@@H]1CCN1; Sar = CNCC(=O)O

Assays:
[1] = target: GDP-bound KRAS wild-type protein (Homo sapiens, UniProt P01116); experiment: Binding to KRAS by surface plasmon resonance (SPR), Single Cycle Kinetics; details: GDP-bound KRAS wild-type protein; for pKd: read-out: KRAS KD
[2] = test system: human lung cancer strain NCI-H441;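 also: cell proliferation inhibition after four days measured by CellTiter-Glo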
[3] = target: GDP-bound HRAS wild-type protein (Homo sapiens, UniProt P01112); experiment: Binding to HRAS by surface plasmon resonance (SPR), Single Cycle Kinetics; details: for HRAS/KRAS (ratio of KD value for HRAS to KD value for KRAS): SPR, GDP-bound HRAS wild-type protein vs GDP-bound KRAS wild-type protein; for HRAS/KRAS (ratio of KD value with respect to GDP-bound HRAS wild-type protein to KD value with respect to KRAS): SPR KD ratio HRAS/KRAS, class symbols
[4] = target: GDP-bound NRAS wild-type protein (Homo sapiens, UniProt P01111); experiment: Binding to NRAS by surface plasmon resonance (SPR), Single Cycle Kinetics; details: for NRAS/KRAS (ratio of KD value for NRAS to KD value for KRAS): SPR, GDP-bound NRAS wild-type protein vs GDP-bound KRAS wild-type protein; for NRAS/KRAS (ratio of KD value with respect to GDP-bound NRAS wild-type protein to KD value with respect to KRAS): SPR KD ratio NRAS/KRAS, class symbols
[5] = SPR Single Cycle Kinetics, 1:1 binding model

Chain of GDP-bound NRAS wild-type protein (P01111 whole entry): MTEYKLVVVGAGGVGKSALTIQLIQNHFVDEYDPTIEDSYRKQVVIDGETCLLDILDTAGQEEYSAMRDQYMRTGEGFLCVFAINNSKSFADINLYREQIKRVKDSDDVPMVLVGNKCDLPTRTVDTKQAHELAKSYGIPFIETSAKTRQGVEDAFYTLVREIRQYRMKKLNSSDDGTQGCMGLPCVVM
Chain of GDP-bound KRAS wild-type protein (P01116 whole entry): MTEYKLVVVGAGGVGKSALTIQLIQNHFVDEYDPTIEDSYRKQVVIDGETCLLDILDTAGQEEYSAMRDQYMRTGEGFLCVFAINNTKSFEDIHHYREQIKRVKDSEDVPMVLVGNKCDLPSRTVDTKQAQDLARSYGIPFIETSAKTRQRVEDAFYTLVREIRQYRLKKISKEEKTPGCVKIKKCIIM
Chain of GDP-bound HRAS wild-type protein (P01112 whole entry): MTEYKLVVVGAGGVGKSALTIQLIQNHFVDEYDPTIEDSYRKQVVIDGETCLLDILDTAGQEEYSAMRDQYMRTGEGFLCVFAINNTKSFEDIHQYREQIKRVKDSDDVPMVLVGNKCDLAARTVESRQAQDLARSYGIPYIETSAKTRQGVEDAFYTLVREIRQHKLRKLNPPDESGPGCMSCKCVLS

Compound | pKd ([1]; SPR, Single Cycle Kinetics, 1:1 binding model) | pIC50 [2] | HRAS/KRAS (ratio of KD value for HRAS to KD value for KRAS) ([3]; KD ratio class) | NRAS/KRAS (ratio of KD value for NRAS to KD value for KRAS) ([4]; KD ratio class) | pKd ([1]; SPR, Single Cycle Kinetics) | HRAS/KRAS (ratio of KD value for HRAS to KD value for KRAS) [3] | NRAS/KRAS (ratio of KD value for NRAS to KD value for KRAS) [4] | pKd [1, 5] | HRAS/KRAS (ratio of KD value with respect to GDP-bound HRAS wild-type protein to KD value with respect to KRAS) [3] | NRAS/KRAS (ratio of KD value with respect to GDP-bound NRAS wild-type protein to KD value with respect to KRAS) [4] | Kd ([1]; KRAS KD (M), SPR Single Cycle Kinetics, 1:1 binding model)
CC[C@H](C)[C@@H]1NC(=O)[C@H](CC(C)C)N(C)C(=O)C[C@@H](C(=O)N2CCOCC2)N(C)C(=O)[C@H](C2CCCC2)N(C)C(=O)C2(CCC2)NC(=O)[C@@H]2CCCN2C(=O)[C@H](CCc2ccc(C(F)(F)F)c(Cl)c2)NC(=O)CN(C)C(=O)[C@H](Cc2ccc(C(F)(F)F)cc2)N2C[C@H](C)CC[C@@H](C2=O)N(C)C(=O)[C@@H]2CCN2C1=O (stereo in doubt) [PP1339] | 9.19 | 7.38 | B (a compound having 3 or more and less than 10 is denoted as B) | A (a compound having 10 or more and less than 20 is denoted as A) |  |  |  |  |  |  | 
CCC(CC)[C@H]1C(=O)N(C)[C@H](C(=O)N(C)C)CC(=O)N(C)[C@@H](COC)C(=O)N[C@@H]([C@@H](C)CC)C(=O)N(C2CC2)CC(=O)N(C)[C@H]2C/C=C\CCN(C2=O)[C@@H](Cc2ccc(C)cc2)C(=O)N(C)CC(=O)N[C@@H](CCc2ccc(Cl)c(Cl)c2)C(=O)N2C[C@H](OC(C)C)C[C@H]2C(=O)NC2(CC(C)(C)C2)C(=O)N1C (stereo in doubt) [PP2509] |  | 7.04 |  |  | 8.59 | A (a compound having 10 or more and less than 20 is denoted as A) | AA (a compound having 20 or more is denoted as AA) |  |  |  | 
CCC[C@H]1C(=O)N[C@H]([C@@H](C)CC)C(=O)N2C[C@@H](OC)C[C@H]2C(=O)N(C)[C@H]2C/C=C\CCN(C2=O)[C@@H](Cc2ccc(C)cc2)C(=O)N(C)CC(=O)N[C@@H](CCc2ccc(C(F)(F)F)c(Cl)c2)C(=O)N2C[C@H](OCC)C[C@H]2C(=O)NC2(CCC2)C(=O)N(C)[C@@H](C2CCCC2)C(=O)N(C)[C@H](C(=O)N(C)C)CC(=O)N1C (stereo in doubt) [PP2552] |  | 7.52 |  |  |  |  |  | 9.55 | B (a compound having 3 or more and less than 10 is denoted as B) | A (a compound having 10 or more and less than 20 is denoted as A) | 
CCOC[C@H]1C(=O)N[C@@H]([C@@H](C)CC)C(=O)N(C2CC2)CC(=O)N(C)[C@@H]2C/C=C\CCN(C2=O)[C@@H](Cc2ccc(C)cc2)C(=O)N(C)CC(=O)N[C@@H](CCc2ccc(C(F)(F)F)c(OC)c2)C(=O)N2C[C@H](OCC)C[C@@H]2C(=O)NC2(CC(C)(C)C2)C(=O)N(C)[C@H](CC2CCC2)C(=O)N(C)[C@H](C(=O)N(C)C)CC(=O)N1C (stereo in doubt) [PP2760] |  | 6.84 |  |  |  |  |  | 8.32 | B (a compound having 3 or more and less than 10 is denoted as B) | A (a compound having 10 or more and less than 20 is denoted as A) | 
CC[C@H](C)[C@@H]1NC(=O)[C@H](CC(C)C)N(C)C(=O)C[C@@H](C(=O)N2CCOCC2)N(C)C(=O)[C@H](C2CCCC2)N(C)C(=O)C2(CCCC2)NC(=O)[C@@H]2C[C@@H](O)CN2C(=O)[C@H](CCc2ccc(C(F)(F)F)c(Cl)c2)NC(=O)CN(C)C(=O)[C@H](Cc2ccc(C)cc2)N(CC)C(=O)CN(C)C(=O)CN(C)C1=O [PP0041] ([NMeL]I[Sar][Sar][NEtPhe(4-Me)][Sar][hPhe(3-Cl-4-CF3)][Hyp][Ac5c][NMeGly(cPent)][NMeD]-Morpholide; lactam N-11) |  | 7.20 |  |  |  | C (A compound having a KD ratio of 0.1 or more and less than 3 is denoted as C) | B (a compound having 3 or more and less than 10 is denoted as B) | 9.92 |  |  | 
CCCN1C(=O)[C@@H]2CCN2C(=O)[C@H](C)N(C)C(=O)[C@H]([C@@H](C)CC)NC(=O)[C@H](CC(C)C)N(C)C(=O)C[C@@H](C(=O)N2CCOCC2)N(C)C(=O)[C@H](C2CCCC2)N(C)C(=O)C2(CCCC2)NC(=O)[C@@H]2CCCN2C(=O)[C@H](CCc2ccc(C(F)(F)F)c(Cl)c2)NC(=O)CN(C)C(=O)[C@@H]1C1CCCC1 [PP0054] ([NMeL]I[NMeA][Aze][X3][Sar][hPhe(3-Cl-4-CF3)]P[Ac5c][NMeGly(cPent)][NMeD]-Morpholide; lactam N-11) |  | 7.09 |  |  |  | C (A compound having a KD ratio of 0.1 or more and less than 3 is denoted as C) | C (A compound having a KD ratio of 0.1 or more and less than 3 is denoted as C) |  |  |  | 4.5e-09 M
